Measurements as given in publication PMC10312992 (ACS Omega, 2023).

Columns and labels:
[1] = system: erythrocytes (heparinized bovine blood); test: hemolytic activity; assay type: cell-based; conditions: 35 min at 37 °C, 10^8 cells/mL; PBS negative control 2.45 ± 0.01%
α-glucosidase = α-glucosidase inhibition assay; assay type: biochemical; conditions: at 0.5 mM; mean ± S.E.M., n = 3

Compound | hemolysis (%) [1] [%] | α-glucosidase (%) inhibition (α-glucosidase) [%]
COC(=O)c1ccccc1NC(=O)C(C)Sc1nnc(Cc2c[nH]c3ccccc23)o1 (stereo not shown) [8l, N-((2-Methoxycarbonyl)phenyl)-2-({5-((1H-indol-3-yl)methyl)-1,3,4-oxadiazol-2-yl}sulfanyl)propanamide] | 8.16 ± 0.02 | 97.56 ± 0.57
CCc1ccccc1NC(=O)C(C)Sc1nnc(Cc2c[nH]c3ccccc23)o1 (stereo not shown) [8h, N-(2-Ethylphenyl)-2-({5-((1H-indol-3-yl)methyl)-1,3,4-oxadiazol-2-yl}sulfanyl)propanmide] | 0.83 ± 0.01 | 98.21 ± 0.31
C[C@H]1O[C@H](O[C@H]2[C@H](O)[C@@H](O)[C@@H](O[C@H]3[C@H](O)[C@@H](O)C(O)O[C@@H]3CO)O[C@@H]2CO)[C@H](O)[C@@H](O)[C@@H]1N[C@H]1C=C(CO)[C@@H](O)[C@H](O)[C@H]1O (stereo partly shown) [acarbose, reference compound] | – | 92.23 ± 0.14
CC(Sc1nnc(Cc2c[nH]c3ccccc23)o1)C(=O)NCCc1ccccc1 (stereo not shown) [8d, N-(2-Phenethyl)-2-({5-((1H-indol-3-yl)methyl)-1,3,4-oxadiazol-2-yl}sulfanyl)propanamide] | 0.05 ± 0.01 | 93.38 ± 0.38
